According to patent publication US20230143604A1, “QW DOSING OF GIP RECEPTOR AGONIST PEPTIDE COMPOUNDS AND USES THEREOF” (TAKEDA PHARMACEUTICAL COMPANY LIMITED, priority 2020, published 2023):
Where two headings read alike, the source gives them in different places.

Legend:
human GLP-1R = molecular target: T1, human GLP-1R (Homo sapiens, UniProt P43220); assay: Human GLP1R agonist activity, intracellular cAMP accumulation; assay type: cell-based; conditions: HEK-293T cells overexpressing human GLP-1R, 1 hr
T1 construct: HEK-293T cells overexpressing full-length human GLP-1R; FLAG (N); host or cells: HEK-293T
Description: Cells are cultured per the manufacturer's protocol in DMEM with 10% fetal bovine serum and 1 μg/mL puromycin and stored in frozen aliquots to be used as assay ready cells. On the day of the assay, cells are removed from frozen storage, washed two times in 1× Kreb's Ringer Buffer (Zenbio, Research Triangle Park, N.C.), and re-suspended to a concentration of 4×10^5 cells/mL in 1× Kreb's Ringer Buffer. […] Cells are incubated with test compound for 1 hr at room temperature in the dark, and cAMP accumulation is measured using the Cisbio HiRange cAMP assay kit (Bedford, Mass.) per the manufacturer's protocol. Anti-cAMP antibody and d2-cAMP tracer reagents diluted in lysis/detection buffer are incubated in the dark for 1 hr, and results are measured on an Envision plate reader (Perkin Elmer, Waltham, Mass.). Data is normalized using 1 nm GLP-1 as 100% activity, and DMSO alone as 0% activity.

[1] = Solubility in phosphate buffer pH 7.4
How it was run: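 Solubility at pH 7.4 determined by stepwise addition of 200 mM phosphate buffer in 100 μL increments to 3 mg peptide, mixing briefly each time, until no insoluble material remained, then measured by liquid chromatography.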

[2] = Human GLP1R cAMP EC50, HEK293T (nM)
[3] = pH 7.4, aqueous buffer, pH 7.4 Phosphate Buffer - Solubility, 200 mM Phosphate buffer pH 7.4
[4] = pH 7.4, solubility in phosphate buffer at pH 7.4, 200 mM phosphate buffer pH 7.4
[5] = read-out: Human GLP1R cAMP EC50, HEK293T

T1 sequence (P43220 24-463): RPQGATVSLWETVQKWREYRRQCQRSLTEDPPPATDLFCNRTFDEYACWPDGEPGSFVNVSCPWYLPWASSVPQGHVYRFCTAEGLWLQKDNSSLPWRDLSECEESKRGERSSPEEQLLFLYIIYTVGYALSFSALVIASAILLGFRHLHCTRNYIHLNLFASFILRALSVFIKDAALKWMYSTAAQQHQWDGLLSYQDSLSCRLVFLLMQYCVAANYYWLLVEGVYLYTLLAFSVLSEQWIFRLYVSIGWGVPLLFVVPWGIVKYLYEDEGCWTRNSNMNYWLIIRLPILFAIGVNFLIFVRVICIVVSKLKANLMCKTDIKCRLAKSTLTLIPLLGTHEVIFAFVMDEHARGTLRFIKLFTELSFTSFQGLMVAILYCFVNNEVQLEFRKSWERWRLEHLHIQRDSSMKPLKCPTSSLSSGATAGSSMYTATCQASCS

SMILES	EC50 (human GLP-1R; [2])	solubility [1, 3]	solubility [1, 4]	EC50 (human GLP-1R; [5])	solubility ([1]; pH 7.4)	solubility ([1]; pH 7.4, aqueous buffer)
CC[C@H](C)[C@H](NC(=O)[C@H](Cc1ccccc1)NC(=O)[C@@H](NC(=O)CNC(=O)[C@H](CCC(=O)O)NC(=O)C(C)(C)NC(=O)[C@H](Cc1ccc(O)cc1)NC)[C@@H](C)O)C(=O)N[C@@H](CO)C(=O)N[C@@H](CC(=O)O)C(=O)N[C@@H](Cc1ccc(O)cc1)C(=O)N[C@@H](CO)C(=O)N[C@H](C(=O)NC(C)(C)C(=O)N[C@@H](CCCCNC(=O)CNC(=O)CNC(=O)CNC(=O)CNC(=O)CNC(=O)CCCCCCCCCCCCCCCC(=O)O)C(=O)N[C@@H](CC(=O)O)C(=O)N[C@@H](CCCNC(=N)N)C(=O)NC(C)(C)C(=O)N[C@@H](C)C(=O)N[C@@H](CCC(N)=O)C(=O)NC(C)(C)C(=O)N[C@@H](CC(N)=O)C(=O)N[C@@H](Cc1ccccc1)C(=O)N[C@H](C(=O)N[C@@H](CC(N)=O)C(=O)N[C@@H](Cc1c[nH]c2ccccc12)C(=O)N[C@@H](CC(C)C)C(=O)N[C@@H](CC(C)C)C(=O)N[C@@H](C)C(=O)N[C@@H](CCC(N)=O)C(=O)N[C@@H](CO)C(=O)N1CCC[C@H]1C(=O)N[C@@H](CO)C(=O)N[C@@H](CO)C(=O)NCC(=O)N[C@@H](C)C(=O)N1CCC[C@H]1C(=O)N1CCC[C@H]1C(=O)N1CCC[C@H]1C(=O)N[C@@H](CO)C(=O)O)C(C)C)[C@@H](C)CC [Compound 95]	17.4 nM	≥ 60 mg/mL	≥ 15 mg/mL	–	–	–
CC[C@H](C)[C@H](NC(=O)[C@H](Cc1ccccc1)NC(=O)[C@@H](NC(=O)CNC(=O)[C@H](CCC(=O)O)NC(=O)C(C)(C)NC(=O)[C@H](Cc1ccc(O)cc1)NC)[C@@H](C)O)C(=O)N[C@@H](CO)C(=O)N[C@@H](CC(=O)O)C(=O)N[C@@H](Cc1ccc(O)cc1)C(=O)N[C@@H](CO)C(=O)N[C@H](C(=O)NC(C)(C)C(=O)N[C@@H](CCCCNC(=O)CNC(=O)CNC(=O)CNC(=O)CNC(=O)CNC(=O)CCCCCCCCCCCCCCCC(=O)O)C(=O)N[C@@H](CC(=O)O)C(=O)N[C@@H](CCCNC(=N)N)C(=O)NC(C)(C)C(=O)N[C@@H](C)C(=O)N[C@@H](CCC(N)=O)C(=O)NC(C)(C)C(=O)N[C@@H](CC(=O)O)C(=O)N[C@@H](Cc1ccccc1)C(=O)N[C@H](C(=O)N[C@@H](CC(N)=O)C(=O)N[C@@H](Cc1c[nH]c2ccccc12)C(=O)N[C@@H](CC(C)C)C(=O)N[C@@H](CC(C)C)C(=O)N[C@@H](C)C(=O)N[C@@H](CCC(N)=O)C(=O)N[C@@H](CCCNC(=N)N)C(=O)NCC(=O)O)C(C)C)[C@@H](C)CC [Compound 98]	–	–	–	112 nM	≥ 15 mg/mL	≥ 30 mg/mL
CC[C@H](C)[C@H](NC(=O)[C@H](CO)NC(=O)[C@H](Cc1ccc(O)cc1)NC(=O)[C@H](CC(=O)O)NC(=O)[C@H](CO)NC(=O)[C@@H](NC(=O)[C@H](Cc1ccccc1)NC(=O)[C@@H](NC(=O)CNC(=O)[C@H](CCC(=O)O)NC(=O)C(C)(C)NC(=O)[C@H](Cc1ccc(O)cc1)NC)[C@@H](C)O)[C@@H](C)CC)C(=O)N[C@@H](C)C(=O)N[C@@H](CCCCNC(=O)CNC(=O)CNC(=O)CNC(=O)CNC(=O)CNC(=O)CCCCCCCCCCCCCCCCCCC(=O)O)C(=O)N[C@@H](CC(=O)O)C(=O)N[C@@H](CCCNC(=N)N)C(=O)NC(C)(C)C(=O)N[C@@H](C)C(=O)N[C@@H](CCC(N)=O)C(=O)NC(C)(C)C(=O)N[C@@H](CC(N)=O)C(=O)N[C@@H](Cc1ccccc1)C(=O)N[C@H](C(=O)N[C@@H](CC(N)=O)C(=O)N[C@@H](Cc1c[nH]c2ccccc12)C(=O)N[C@@H](CC(C)C)C(=O)N[C@@H](CC(C)C)C(=O)N[C@@H](C)C(=O)N[C@@H](CCC(N)=O)C(=O)N[C@@H](CO)C(=O)N1CCC[C@H]1C(=O)N[C@@H](CO)C(=O)N[C@@H](CO)C(=O)NCC(=O)N[C@@H](C)C(=O)N1CCC[C@H]1C(=O)N1CCC[C@H]1C(=O)N1CCC[C@H]1C(=O)N[C@@H](CO)C(=O)O)C(C)C [Compound 112]	21.4 nM	≥ 30 mg/mL	≥ 15 mg/mL	–	–	–
CC[C@H](C)[C@H](NC(=O)[C@H](CO)NC(=O)[C@H](Cc1ccc(O)cc1)NC(=O)[C@H](CC(=O)O)NC(=O)[C@H](CO)NC(=O)[C@@H](NC(=O)[C@H](Cc1ccccc1)NC(=O)[C@@H](NC(=O)CNC(=O)[C@H](CCC(=O)O)NC(=O)C(C)(C)NC(=O)[C@H](Cc1ccc(O)cc1)NC)[C@@H](C)O)[C@@H](C)CC)C(=O)N[C@@H](C)C(=O)N[C@@H](CC(C)C)C(=O)N[C@@H](CC(=O)O)C(=O)N[C@@H](CCCNC(=N)N)C(=O)N[C@@H](CCCCNC(=O)CNC(=O)CNC(=O)CNC(=O)CNC(=O)CNC(=O)CCCCCCCCCCCCCCCCC(=O)O)C(=O)N[C@@H](C)C(=O)N[C@@H](CCC(N)=O)C(=O)NC(C)(C)C(=O)N[C@@H](CC(=O)O)C(=O)N[C@@H](Cc1ccccc1)C(=O)N[C@H](C(=O)N[C@@H](CC(N)=O)C(=O)N[C@@H](Cc1c[nH]c2ccccc12)C(=O)N[C@@H](CC(C)C)C(=O)N[C@@H](CC(C)C)C(=O)N[C@@H](C)C(=O)N[C@@H](CCC(N)=O)C(=O)N[C@@H](CO)C(=O)N1CCC[C@H]1C(=O)NCC(=O)O)C(C)C [Compound 113]	–	–	–	13.5 nM	≥ 15 mg/mL	≥ 30 mg/mL
CC[C@H](C)[C@H](NC(=O)[C@H](CO)NC(=O)[C@H](Cc1ccc(O)cc1)NC(=O)[C@H](CC(=O)O)NC(=O)[C@H](CO)NC(=O)[C@@H](NC(=O)[C@H](Cc1ccccc1)NC(=O)[C@@H](NC(=O)CNC(=O)[C@H](CCC(=O)O)NC(=O)C(C)(C)NC(=O)[C@H](Cc1ccc(O)cc1)NC)[C@@H](C)O)[C@@H](C)CC)C(=O)N[C@@H](C)C(=O)N[C@@H](CCCCNC(=O)CNC(=O)CNC(=O)CNC(=O)CNC(=O)CNC(=O)CCCCCCCCCCCCCCCCC(=O)O)C(=O)N[C@@H](CC(=O)O)C(=O)N[C@@H](CCCNC(=N)N)C(=O)NC(C)(C)C(=O)N[C@@H](C)C(=O)N[C@@H](CCC(N)=O)C(=O)N[C@@H](CCCNC(=N)N)C(=O)N[C@@H](CC(=O)O)C(=O)N[C@@H](Cc1ccccc1)C(=O)N[C@H](C(=O)N[C@@H](CCC(=O)O)C(=O)N[C@@H](Cc1c[nH]c2ccccc12)C(=O)N[C@@H](CC(C)C)C(=O)N[C@@H](CC(C)C)C(=O)N[C@@H](C)C(=O)N[C@@H](CCC(N)=O)C(=O)N[C@@H](CO)C(=O)N1CCC[C@H]1C(=O)NCC(=O)O)C(C)C [Compound 120]	–	–	–	15.8 nM	≥ 15 mg/mL	≥ 30 mg/mL
CC[C@H](C)[C@H](NC(=O)[C@H](Cc1ccccc1)NC(=O)[C@@H](NC(=O)CNC(=O)[C@H](CCC(=O)O)NC(=O)C(C)(C)NC(=O)[C@@H](N)Cc1ccc(O)cc1)[C@@H](C)O)C(=O)N[C@@H](CO)C(=O)N[C@@H](CC(=O)O)C(=O)N[C@@H](Cc1ccc(O)cc1)C(=O)N[C@@H](CO)C(=O)N[C@H](C(=O)NC(C)(C)C(=O)N[C@@H](CCCCNC(=O)CNC(=O)CNC(=O)CNC(=O)CNC(=O)CNC(=O)CCCCCCCCCCCCCCCCC(=O)O)C(=O)N[C@@H](CC(=O)O)C(=O)N[C@@H](CO)C(=O)NC(C)(C)C(=O)N[C@@H](C)C(=O)N[C@@H](CCC(N)=O)C(=O)NC(C)(C)C(=O)N[C@@H](CC(=O)O)C(=O)N[C@@H](Cc1ccccc1)C(=O)N[C@H](C(=O)N[C@@H](CC(N)=O)C(=O)N[C@@H](Cc1c[nH]c2ccccc12)C(=O)N[C@@H](CC(C)C)C(=O)N[C@@H](CC(C)C)C(=O)N[C@@H](C)C(=O)N[C@@H](CCC(N)=O)C(=O)N[C@@H](CCCNC(=N)N)C(=O)NCC(=O)O)C(C)C)[C@@H](C)CC [Compound 150]	–	–	–	13.5 nM	≥ 15 mg/mL	≥ 30 mg/mL
CC[C@H](C)[C@H](NC(=O)[C@H](Cc1ccccc1)NC(=O)[C@@H](NC(=O)CNC(=O)[C@H](CCC(=O)O)NC(=O)C(C)(C)NC(=O)[C@@H](N)Cc1ccc(O)cc1)[C@@H](C)O)C(=O)N[C@@H](CO)C(=O)N[C@@H](CC(=O)O)C(=O)N[C@@H](Cc1ccc(O)cc1)C(=O)N[C@@H](CO)C(=O)N[C@H](C(=O)NC(C)(C)C(=O)N[C@@H](CCCCNC(=O)CNC(=O)CNC(=O)CNC(=O)CNC(=O)CNC(=O)CCCCCCCCCCCCCCCCC(=O)O)C(=O)N[C@@H](CC(=O)O)C(=O)N[C@@H](CO)C(=O)NC(C)(C)C(=O)N[C@@H](C)C(=O)N[C@@H](CCC(N)=O)C(=O)N[C@@H](C)C(=O)N[C@@H](CC(=O)O)C(=O)N[C@@H](Cc1ccccc1)C(=O)N[C@H](C(=O)N[C@@H](CC(N)=O)C(=O)N[C@@H](Cc1c[nH]c2ccccc12)C(=O)N[C@@H](CC(C)C)C(=O)N[C@@H](CC(C)C)C(=O)N[C@@H](C)C(=O)N[C@@H](CCC(N)=O)C(=O)N[C@@H](CCCNC(=N)N)C(=O)NCC(=O)O)C(C)C)[C@@H](C)CC [Compound 152]	–	–	–	33.1 nM	≥ 15 mg/mL	≥ 30 mg/mL
